Results from the NIST ThermoML archive (doi:10.1016/j.jct.2019.05.009).

Assay: molar heat capacity at constant pressure
Details: 101.33 kPa, Crystal, relaxation calorimetry

[Al] [aluminum]
Details | molar heat capacity at constant pressure [J/K/mol]
1.863 K | 0.002602
1.936 K | 0.002749
2.01 K | 0.002882
2.089 K | 0.002997
2.173 K | 0.003177
2.264 K | 0.003323
2.36 K | 0.003531
2.459 K | 0.003773
2.562 K | 0.003901
2.677 K | 0.00413
2.795 K | 0.004373
2.915 K | 0.004596
3.042 K | 0.004765
3.177 K | 0.005056
3.318 K | 0.005413
3.464 K | 0.005679
3.615 K | 0.005941
3.776 K | 0.006361
3.943 K | 0.00681
4.119 K | 0.007189
4.301 K | 0.007838
4.492 K | 0.008275
4.687 K | 0.008914
4.896 K | 0.009549
5.111 K | 0.01026
5.34 K | 0.01095
5.574 K | 0.01158
5.822 K | 0.01268
6.08 K | 0.01359
6.349 K | 0.01458
6.636 K | 0.01573
6.925 K | 0.01714
7.23 K | 0.01866
7.547 K | 0.02044
7.883 K | 0.02258
8.234 K | 0.02467
8.595 K | 0.02641
8.981 K | 0.02942
9.378 K | 0.03231
9.795 K | 0.03497
10.24 K | 0.03897
10.71 K | 0.04317
11.19 K | 0.04767
11.69 K | 0.05284
12.21 K | 0.05868
12.75 K | 0.06538
13.31 K | 0.07304
13.9 K | 0.08149
14.52 K | 0.09112
15.16 K | 0.1021
15.66 K | 0.1115
17.12 K | 0.1425
18.7 K | 0.1842
20.44 K | 0.24
22.34 K | 0.317
24.42 K | 0.423
26.67 K | 0.5669
29.14 K | 0.7607
31.85 K | 1.02
34.81 K | 1.356
38.05 K | 1.784
41.58 K | 2.319
45.44 K | 2.967
49.66 K | 3.728
54.27 K | 4.615
59.31 K | 5.613
64.81 K | 6.718
70.81 K | 7.909
77.38 K | 9.17
84.53 K | 10.51
92.37 K | 11.83
100.93 K | 13.12
111.01 K | 14.49
121.1 K | 15.74
131.22 K | 16.79
141.3 K | 17.72
151.36 K | 18.54
161.49 K | 19.25
171.61 K | 19.88
181.69 K | 20.47
191.79 K | 21.01
201.89 K | 21.48
211.98 K | 21.89
222.08 K | 22.24
232.18 K | 22.58
242.28 K | 22.91
252.36 K | 23.16
262.46 K | 23.41
272.56 K | 23.64
282.64 K | 23.88
292.73 K | 24.08
302.81 K | 24.25

O=C(O)c1ccccc1 [benzoic acid]
Details | molar heat capacity at constant pressure [J/K/mol]
1.855 K | 0.01205
1.92 K | 0.01371
1.999 K | 0.01544
2.082 K | 0.0168
2.168 K | 0.01932
2.26 K | 0.02218
2.357 K | 0.02464
2.464 K | 0.0282
2.568 K | 0.03421
2.679 K | 0.03716
2.796 K | 0.04141
2.918 K | 0.04667
3.044 K | 0.04829
3.179 K | 0.0605
3.32 K | 0.07095
3.465 K | 0.07898
3.617 K | 0.08814
3.776 K | 0.103
3.942 K | 0.1157
4.118 K | 0.1296
4.303 K | 0.1534
4.491 K | 0.172
4.686 K | 0.1966
4.893 K | 0.2248
5.109 K | 0.2491
5.336 K | 0.3026
5.572 K | 0.3324
5.823 K | 0.382
6.077 K | 0.452
6.345 K | 0.5096
6.625 K | 0.5803
6.92 K | 0.6878
7.225 K | 0.7916
7.545 K | 0.8991
7.878 K | 1.031
8.227 K | 1.197
8.596 K | 1.338
8.976 K | 1.541
9.373 K | 1.763
9.789 K | 1.997
10.24 K | 2.278
10.71 K | 2.579
11.18 K | 2.902
11.68 K | 3.262
12.2 K | 3.647
12.74 K | 4.074
13.3 K | 4.535
13.89 K | 5.046
14.5 K | 5.598
15.14 K | 6.188
15.64 K | 6.658
17.1 K | 8.085
18.69 K | 9.716
20.41 K | 11.56
22.32 K | 13.61
24.4 K | 15.91
26.66 K | 18.4
29.13 K | 20.97
31.84 K | 23.77
34.8 K | 26.64
38.03 K | 29.6
41.56 K | 32.79
45.42 K | 35.88
49.63 K | 39.11
54.24 K | 42.18
59.28 K | 45.06
64.78 K | 47.92
70.79 K | 50.65
77.36 K | 53.75
84.51 K | 57.18
92.38 K | 61.03
100.95 K | 64.26
110.98 K | 67.64
121.09 K | 71.22
131.21 K | 75.19
141.28 K | 78.86
151.34 K | 82.29
161.49 K | 85.76
171.59 K | 90.18
181.67 K | 95.02
191.74 K | 98.7
201.82 K | 102.27
211.92 K | 106.37
222 K | 112.07
232.09 K | 117.31
242.17 K | 119.6
252.25 K | 124.22
262.35 K | 128.72
272.46 K | 133
282.54 K | 137.8
292.59 K | 141.72
302.66 K | 146.37
